Source: article PMC8617031, “Development of a BCL-xL and BCL-2 dual degrader with improved anti-leukemic activity,” (Nature Communications, 2021)
Where “and” joins values, the source holds several entries; their conditions need not be identical. Equal values may be shown once.

What was measured:
[1] = tested on: BCL-2/PROTAC/VCB ternary complex (HiBit-BCL-2, HaloTag-VHL); test: NanoBRET intracellular ternary complex formation in 293T cells, BCL-2; type: cell-based, human; conditions: for NanoBRET ratio (610/450 x1000, background-subtracted), Bcl-2, Ave / NanoBRET signal (610/450 ratio, background-subtracted), Ave, Bcl-2: Ave of Read1 and Read2; for NanoBRET ratio (610/450 x1000, background-subtracted), Bcl-2, Ave / NanoBRET ratio (610/450 x1000, background-subtracted), Bcl-2, Read1 / NanoBRET ratio (610/450 x1000, background-subtracted), Bcl-2, Read2: 293T cells, triplicate wells; for NanoBRET signal (610/450 ratio, background-subtracted), Ave, Bcl-2: per replicate well; for NanoBRET signal (610/450 ratio, background-subtracted), Read1, Bcl-2 / NanoBRET signal (610/450 ratio, background-subtracted), Read2, Bcl-2: individual replicate wells
Source text: (§1) Plasmids HaloTag-VHL (Cat. No. CS1679C155) and CMV HiBit (Cat. No. CS1956B03) were purchased from Promega. HiBit-BCL-xL and HiBit-BCL-2 were constructed previously. The two mutants (HiBit-BCL-xL-K157-only and HiBit-BCL-xL-K-ko) were constructed through Gibson assembly method. The primer pair (5′-[…]-3′ and 5′-[…]c[…]-3′) and the template Flag-BCL-xL-K157-only or Flag-BCL-xL-K-ko (pDL2129)[2] were used to clone the BCL-xL-K157-only-containing and BCL-xL-K-ko-containing fragments, respectively. The primer pair (5′-[…]g[…]-3′ and 5′-[…]-3′) and pBit3.1-N (Cat. No. N2361, Promega) were used to clone the vector-containing fragment. The PCR fragments were assembled using NEBuilder® HiFi DNA Assembly Master Mix (Cat. No. E2621, NEB, Ipswich, MA, USA). DNA sequences in all these plasmids were authenticated by automatic sequencing. […] After 24 h, 2 × 10^4 transfected cells were seeded into white 96-well tissue culture plates in Gibco™ Opti-MEM™ I Reduced Serum Medium, No Phenol Red (Cat. No. 11-058-021, Fisher) containing 4% FBS with or without HaloTag NanoBRET 618 Ligand (Cat. No. PRN1662, Promega) and incubated overnight at 37 °C, 5% CO2. The following day, serial diluted compounds were added into the medium and plates were incubated at 37 °C, 5% CO2, for 6 h. After treatment, NanoBRET Nano-Glo Substrate (cat. no. N1662, Promega) was added into the medium, and the contents were mixed by shaking the plate for 30 s before measuring donor and acceptor signals on Biotek plate reader. Dual-filtered luminescence was collected with a 450/50 nm bandpass filter (donor, NanoBiT-BCL-XL protein or NanoBiT-BCL-2 protein) and a 610-nm longpass filter (acceptor, HaloTag NanoBRET ligand) using an integration time of 0.5 s. mBRET ratios were calculated following the NanoBRET™ Nano-Glo® Detection System (Cat. No. N1662, Promega).

[2] = tested on: BCL-xL/PROTAC/VCB ternary complex (HiBit-BCL-xL, HaloTag-VHL); test: NanoBRET intracellular ternary complex formation in 293T cells, BCL-xL; type: cell-based, human; conditions: for NanoBRET ratio (610/450 x1000, background-subtracted), Bcl-xl, Ave / NanoBRET signal (610/450 ratio, background-subtracted), Ave, Bcl-xl: Ave of Read1 and Read2; for NanoBRET ratio (610/450 x1000, background-subtracted), Bcl-xl, Ave / NanoBRET ratio (610/450 x1000, background-subtracted), Bcl-xl, Read1 / NanoBRET ratio (610/450 x1000, background-subtracted), Bcl-xl, Read2: 293T cells, triplicate wells; for NanoBRET signal (610/450 ratio, background-subtracted), Ave, Bcl-xl: per replicate well; for NanoBRET signal (610/450 ratio, background-subtracted), Read1, Bcl-xl / NanoBRET signal (610/450 ratio, background-subtracted), Read2, Bcl-xl: individual replicate wells
Source text: as §1

## Cc1ncsc1-c1ccc(C(C)NC(=O)C2CC(O)CN2C(=O)C(NC(=O)CCCCCC(=O)N2CCN(CC3(C)CCC(c4ccc(Cl)cc4)=C(CN4CCN(c5ccc(C(=O)NS(=O)(=O)c6ccc(NC(CCN7CCOCC7)CSc7ccccc7)c(S(=O)(=O)C(F)(F)F)c6)cc5)CC4)C3)CC2)C(C)(C)C)cc1 (mixture of isomers) [319-C7]
[1]; 0.333 uM
  NanoBRET ratio (610/450 x1000, background-subtracted), Bcl-2, Ave: 6.052 and 6.92 and 7.6505
  NanoBRET ratio (610/450 x1000, background-subtracted), Bcl-2, Read1: 5.966 and 6.845 and 7.7752
  NanoBRET ratio (610/450 x1000, background-subtracted), Bcl-2, Read2: 6.137 and 6.996 and 7.5258
[1]; 1 uM
  NanoBRET ratio (610/450 x1000, background-subtracted), Bcl-2, Ave: 8.414 and 7.671 and 8.038
  NanoBRET ratio (610/450 x1000, background-subtracted), Bcl-2, Read1: 8.989 and 7.62 and 8.138
  NanoBRET ratio (610/450 x1000, background-subtracted), Bcl-2, Read2: 7.839 and 7.721 and 7.939
[1]; 3 uM
  NanoBRET ratio (610/450 x1000, background-subtracted), Bcl-2, Ave: 7.385 and 7.884 and 8.749
  NanoBRET ratio (610/450 x1000, background-subtracted), Bcl-2, Read1: 7.497 and 8.645 and 8.883
  NanoBRET ratio (610/450 x1000, background-subtracted), Bcl-2, Read2: 7.2733 and 7.122 and 8.615
[2]; 0.333 uM
  NanoBRET ratio (610/450 x1000, background-subtracted), Bcl-xl, Ave: 6.383 and 6.41 and 6.027
  NanoBRET ratio (610/450 x1000, background-subtracted), Bcl-xl, Read1: 6.118 and 6.864 and 6.2545
  NanoBRET ratio (610/450 x1000, background-subtracted), Bcl-xl, Read2: 6.648 and 5.956 and 5.8
[2]; 1 uM
  NanoBRET ratio (610/450 x1000, background-subtracted), Bcl-xl, Ave: 8.353 and 6.411 and 6.637
  NanoBRET ratio (610/450 x1000, background-subtracted), Bcl-xl, Read1: 7.957 and 6.709 and 6.774
  NanoBRET ratio (610/450 x1000, background-subtracted), Bcl-xl, Read2: 8.749 and 6.113 and 6.499
[2]; 3 uM
  NanoBRET ratio (610/450 x1000, background-subtracted), Bcl-xl, Ave: 5.568 and 7.612 and 6.364
  NanoBRET ratio (610/450 x1000, background-subtracted), Bcl-xl, Read1: 5.755 and 8.211 and 6.36
  NanoBRET ratio (610/450 x1000, background-subtracted), Bcl-xl, Read2: 5.382 and 7.013 and 6.368

## Cc1ncsc1-c1ccc(C(C)NC(=O)C2CC(O)CN2C(=O)C(NC(=O)CCCCCCC(=O)N2CCN(CC3(C)CCC(c4ccc(Cl)cc4)=C(CN4CCN(c5ccc(C(=O)NS(=O)(=O)c6ccc(NC(CCN7CCOCC7)CSc7ccccc7)c(S(=O)(=O)C(F)(F)F)c6)cc5)CC4)C3)CC2)C(C)(C)C)cc1 (mixture of isomers) [319-C8]
[1]; 0.333 uM
  NanoBRET signal (610/450 ratio, background-subtracted), Ave, Bcl-2: 6.709 and 6.763 and 6.945
  NanoBRET signal (610/450 ratio, background-subtracted), Read1, Bcl-2: 6.876 and 6.829 and 6.839
  NanoBRET signal (610/450 ratio, background-subtracted), Read2, Bcl-2: 6.543 and 6.698 and 7.051
[1]; 1 uM
  NanoBRET signal (610/450 ratio, background-subtracted), Ave, Bcl-2: 8.276 and 7.6621 and 8.376
  NanoBRET signal (610/450 ratio, background-subtracted), Read1, Bcl-2: 8.792 and 8.054 and 8.836
  NanoBRET signal (610/450 ratio, background-subtracted), Read2, Bcl-2: 7.759 and 7.2706 and 7.917
[1]; 3 uM
  NanoBRET signal (610/450 ratio, background-subtracted), Ave, Bcl-2: 8.696 and 8.738 and 7.9326
  NanoBRET signal (610/450 ratio, background-subtracted), Read1, Bcl-2: 8.912 and 9.6864 and 8.129
  NanoBRET signal (610/450 ratio, background-subtracted), Read2, Bcl-2: 8.48 and 7.79 and 7.737
[2]; 0.333 uM
  NanoBRET signal (610/450 ratio, background-subtracted), Ave, Bcl-xl: 7.726 and 6.163 and 6.736
  NanoBRET signal (610/450 ratio, background-subtracted), Read1, Bcl-xl: 7.612 and 5.878 and 6.37
  NanoBRET signal (610/450 ratio, background-subtracted), Read2, Bcl-xl: 7.841 and 6.448 and 7.103
[2]; 1 uM
  NanoBRET signal (610/450 ratio, background-subtracted), Ave, Bcl-xl: 7.132 and 7.494 and 7.451
  NanoBRET signal (610/450 ratio, background-subtracted), Read1, Bcl-xl: 7.4 and 7.483 and 8.183
  NanoBRET signal (610/450 ratio, background-subtracted), Read2, Bcl-xl: 6.864 and 7.506 and 6.7195
[2]; 3 uM
  NanoBRET signal (610/450 ratio, background-subtracted), Ave, Bcl-xl: 8.664 and 8.41 and 8.787
  NanoBRET signal (610/450 ratio, background-subtracted), Read1, Bcl-xl: 9.315 and 7.583 and 8.729
  NanoBRET signal (610/450 ratio, background-subtracted), Read2, Bcl-xl: 8.012 and 9.238 and 8.844
